In ChEMBL document CHEMBL1129402, “Structure-based design of HIV protease inhibitors: 5,6-dihydro-4-hydroxy-2-pyrones as effective, nonpeptidic inhibitors” (J Med Chem, 1996):

Target: Human immunodeficiency virus type 1 protease (Human immunodeficiency virus 1, UniProt Q72874)
Experiment: HIV Protease inhibitory activity

SMILES | Ki [nM] | IC50 [nM]
CCC(C1=C(O)OC(CC(C)C)(CC(C)C)CC1=O)c1ccccc1 (centres undefined) |  | 75000
C=CC(C1=C(O)OC2(CCCCCC2)CC1=O)c1ccccc1 (centres undefined) |  | > 1000
CCC(C1=C(O)OC2(CCCCC2)CC1=O)c1ccccc1 (centres undefined) |  | 780
CCC(C1=C(O)OC2(CCC(=O)CC2)CC1=O)c1ccccc1 (centres undefined) |  | > 1000
C=CC(C1=C(O)OC2(CCCC2)CC1=O)c1ccccc1 (centres undefined) |  | 3000
C=CC(C1=C(O)OC2(CCOCC2)CC1=O)c1ccccc1 (centres undefined) |  | > 10000
C=CC(C1=C(O)OC2(CCCCC2Cc2ccccc2)CC1=O)c1ccccc1 (centres undefined) |  | > 1000
CCC(C1=C(O)OC(c2ccccc2)(C2CCCCC2)CC1=O)c1cccc(O)c1 (centres undefined) | 610 | 
CCC(C1=C(O)OC2(CCCCCCC2)CC1=O)c1ccccc1 (centres undefined) |  | 3000
CCCC1(CCC)CC(O)=C(C(c2ccccc2)C2CC2)C(=O)O1 (centres undefined) | 15 | 

Other lines, results leading:

Ki [nM] | IC50 [nM] | SMILES
95 |  | CCCC1(c2ccccc2)CC(=O)C(C(CC)c2ccccc2)=C(O)O1 (centres undefined)
 | > 10000 | CCC(C1=C(O)OC(Cc2ccccc2)(Cc2ccccc2)CC1=O)c1ccccc1 (centres undefined)
16 |  | C=CC(C1=C(O)OC(CCC)(CCc2ccccc2)CC1=O)c1ccccc1 (centres undefined)
160 |  | CCC(C1=C(O)OC(CC)(c2ccccc2)CC1=O)c1ccccc1 (centres undefined)
35 |  | CCCC1(CCc2ccccc2)CC(=O)C(C(CC)c2ccccc2)=C(O)O1 (centres undefined)
64 |  | CCCC1(CCc2ccccc2)CC(=O)C(C(c2ccccc2)C2CC2)=C(O)O1 (centres undefined)
 | > 1000 | CCCC1(CCC)CC(=O)C(C(c2ccccc2)C(C)(C)C)=C(O)O1 (centres undefined)
59 |  | CCCC1(CCc2ccccc2)CC(=O)C(C(c2ccccc2)C2CCCC2)=C(O)O1 (centres undefined)
39 |  | CCCC1(CCC)CC(=O)C(C(c2ccccc2)C2CCCC2)=C(O)O1 (centres undefined)
 | 3000 | CCCCC1(Cc2ccccc2)CC(=O)C(C(CC)c2ccccc2)=C(O)O1 (centres undefined)
50 |  | CCCC1(CCc2ccccc2)CC(=O)C(C(/C=C/c2ccccc2)c2ccccc2)=C(O)O1 (centres undefined)
 | > 10000 | CCC(C1=C(O)OC(Cc2ccccc2)(c2ccccc2)CC1=O)c1ccccc1 (centres undefined)
22 |  | CCCC1(CCC)CC(=O)C(C(CC)c2ccccc2)=C(O)O1 (centres undefined)
33 |  | CCCC1(CCc2ccccc2)CC(=O)C(C(CCc2ccccc2)c2ccccc2)=C(O)O1 (centres undefined)
